In patent US20230172204A1 (BASF SE, priority 2020, published 2023):

Experiments:
[1] = test system: Phakopsora pachyrhizi (F129L); test: Protective control of soybean rust on soybeans (PHAKPA P2); format: in vivo; conditions: for % PHAKPA (F129L) Disease level P2 at 4 ppm: protective P2, 4 ppm; for % PHAKPA (F129L) Disease level P2 at 4 ppm / % PHAKPA (F129L) Disease level P2 at 16 ppm: soybean rust F129L; for % PHAKPA (F129L) Disease level P2 at 16 ppm: protective P2, 16 ppm; for PHAKPA (F129L) Disease level (%) P2 at 16 ppm / PHAKPA (F129L) Disease level (%) P2 at 4 ppm: P2 protective, % diseased leaf area
[2] = test system: Phakopsora pachyrhizi (F129L); test: Protective control of soybean rust on soybeans (PHAKPA P6); format: in vivo; conditions: for % PHAKPA (F129L) Disease level P6 at 4 ppm: protective P6, 4 ppm; for % PHAKPA (F129L) Disease level P6 at 4 ppm / % PHAKPA (F129L) Disease level P6 at 16 ppm: soybean rust F129L; for % PHAKPA (F129L) Disease level P6 at 16 ppm: protective P6, 16 ppm; for PHAKPA (F129L) Disease level (%) P6 at 16 ppm / PHAKPA (F129L) Disease level (%) P6 at 4 ppm: P6 protective, % diseased leaf area

SMILES	% PHAKPA (F129L) Disease level P2 at 4 ppm [1] [%]	% PHAKPA (F129L) Disease level P2 at 16 ppm [1] [%]	% PHAKPA (F129L) Disease level P6 at 4 ppm [2] [%]	% PHAKPA (F129L) Disease level P6 at 16 ppm [2] [%]	PHAKPA (F129L) Disease level (%) P2 at 16 ppm [1] [%]	PHAKPA (F129L) Disease level (%) P6 at 16 ppm [2] [%]	PHAKPA (F129L) Disease level (%) P2 at 4 ppm [1] [%]	PHAKPA (F129L) Disease level (%) P6 at 4 ppm [2] [%]
CO/N=C(/C(=O)OC)c1cccc(C)c1CO/N=C(\C)c1cccc(Cl)c1C(F)(F)F [compound 421]	100	33	87	57	–	–	–	–
CNC(=O)/C(=N/OC)c1cccc(C)c1CO/N=C(\C)c1ccc(C#N)c(C(F)(F)F)c1 [compound 17]	70	50	63	57	–	–	–	–
CNC(=O)/C(=N/OC)c1cccc(C)c1CO/N=C(\C)c1cccc(Br)c1F [compound 141]	2	0	2	0	–	–	–	–
CNC(=O)/C(=N/OC)c1ccccc1CO/N=C(\C)c1cccc(-c2noc(C(F)(F)F)n2)c1 [reference compound]	–	–	–	–	23	32	–	–
CO/N=C(/C)c1ccccc1/C(C)=N/OCc1c(C)cccc1/C(=N\OC)C(=O)OC [compound 187]	100	100	90	90	–	–	–	–
CNC(=O)/C(=N/OC)c1cccc(C)c1CO/N=C(\C)c1ccc(C)c(C(F)(F)F)c1 [compound 230]	22	1	73	4	–	–	–	–
CO/N=C(/C(=O)OC)c1cccc(C)c1CO/N=C(\C)c1cc(Cl)cc(C(F)(F)F)c1 [compound 33]	50	33	60	75	–	–	–	–
CO/N=C(/C(=O)OC)c1ccccc1CO/N=C(\C)c1cccc(C(F)(F)F)c1 [Trifloxystrobin, trifloxystrobin, reference compound]	–	–	–	–	17	33	71	79
CO/N=C(/C(=O)OC)c1ccccc1CO/N=C(\C)c1ccccc1F [reference compound]	–	–	–	–	83	77	–	–
C=Cc1ccccc1/C(C)=N/OCc1c(C)cccc1/C(=N\OC)C(=O)NC [compound 211]	100	43	100	77	–	–	–	–
CO/N=C(/C(=O)OC)c1cccc(C(F)F)c1CO/N=C(\C)c1cccc(C(F)(F)F)c1 [Ex. 24]	36	60	4	28	–	–	–	–
CO/N=C(/C(=O)OC)c1cccc(C)c1CO/N=C(\C)c1cc(Br)ccc1F [compound 138]	47	2	35	1	–	–	–	–
CNC(=O)/C(=N/OC)c1cccc(C)c1CO/N=C(\C)c1cccc(/C(=N/OC)C(F)(F)F)c1 [compound 71]	2	0	6	0	–	–	–	–
CNC(=O)/C(=N/OC)c1cccc(C)c1CO/N=C(\C)c1ccc(F)c(F)c1OC(F)(F)F [compound 451]	1	0	2	0	–	–	–	–
CO/N=C(/C(=O)OC)c1cccc(C)c1CO/N=C(\C)c1ccccc1Br [compound 119]	93	63	92	63	–	–	–	–
CNC(=O)/C(=N/OC)c1cccc(C)c1CO/N=C(\C)c1cc(C(F)(F)F)ccc1C1CC1 [compound 185]	100	67	90	77	–	–	–	–
CNC(=O)/C(=N/OC)c1cccc(C)c1CO/N=C(\C)c1ccccc1COC [compound 277]	100	60	100	100	–	–	–	–
CO/N=C(/C(=O)OC)c1cccc(C)c1CO/N=C(\C)c1ccc(C(F)(F)F)cc1 [Ex. 37]	40	3	40	2	0	0	–	–

SMILES	% PHAKPA (F129L) Disease level P2 at 4 ppm [1] [%]	% PHAKPA (F129L) Disease level P2 at 16 ppm [1] [%]	% PHAKPA (F129L) Disease level P6 at 4 ppm [2] [%]	% PHAKPA (F129L) Disease level P6 at 16 ppm [2] [%]	PHAKPA (F129L) Disease level (%) P2 at 16 ppm [1] [%]	PHAKPA (F129L) Disease level (%) P6 at 16 ppm [2] [%]	PHAKPA (F129L) Disease level (%) P2 at 4 ppm [1] [%]	PHAKPA (F129L) Disease level (%) P6 at 4 ppm [2] [%]
CNC(=O)/C(=N/OC)c1cccc(C)c1CO/N=C(\C)c1ccccc1C(C)(F)F [compound 372]	85	26	85	16	–	–	–	–
CNC(=O)/C(=N/OC)c1cccc(C)c1CO/N=C(\C)c1c(F)cccc1OC(F)F [compound 202]	90	22	100	47	–	–	–	–
CNC(=O)/C(=N/OC)c1cccc(C)c1CO/N=C(\C)c1ccc(Cl)c(F)c1CC(F)(F)F [compound 412]	47	6	40	6	–	–	–	–
CO/N=C(/C(=O)OC)c1cccc(C)c1CO/N=C(\SC)c1cccc(C)c1 [drawing 972, reference compound]	–	–	–	–	–	30	60	–
CNC(=O)/C(=N/OC)c1ccccc1CO/N=C(\C)c1ccc(Cl)c(Cl)c1 [reference compound]	–	–	–	–	–	–	43	77
CO/N=C(/C(=O)OC)c1cccc(C)c1CO/N=C(\C)c1ccc(OC(F)(F)F)cc1F [compound 269]	5	0	18	0	–	–	–	–
C#Cc1ccccc1/C(C)=N/OCc1c(C)cccc1/C(=N\OC)C(=O)NC [compound 125]	72	9	90	44	–	–	–	–
CNC(=O)/C(=N/OC)c1cccc(C)c1CO/N=C(\CC1CC1)c1cccc(C(F)(F)F)c1 [compound 234]	53	18	53	15	–	–	–	–
CO/N=C(/C(=O)OC)c1cccc(C)c1CO/N=C(\C)c1ccccc1Cl [compound 116]	85	57	85	67	–	–	–	–
CNC(=O)/C(=N/OC)c1cccc(C)c1CO/N=C(\C)c1ccccc1C1CC1 [compound 219]	60	8	87	43	–	–	–	–
CO/N=C(/C(=O)OC)c1cccc(C)c1CO/N=C(\C)c1ccc(C)cc1 [Ex. 5, Methyl (2E)-2-methoxyimino-2-[3-methyl-2-[[(E)-1-(p-tolyl)ethylideneamino]oxymethyl]phenyl]acetate]	28	1	50	4	1	4	–	–
CC/C(=N\OCc1c(C)cccc1/C(=N\OC)C(=O)NC)c1ccccc1C(F)(F)F [compound 189]	82	28	97	37	–	–	–	–
CNC(=O)/C(=N/OC)c1cccc(C)c1CO/N=C(\C)c1ccc(-c2ccccc2)cc1 [Ex. 113]	25	26	41	25	17	6	–	–
CO/N=C(/C(=O)OC)c1cccc(C)c1CO/N=C(\C)c1ccc(F)cc1 [compound 103]	40	3	35	4	–	–	–	–
CO/N=C(/C(=O)OC)c1cccc(C)c1CO/N=C(\C)c1ccccc1C(C)C [compound 218]	100	87	100	100	–	–	–	–
CO/C=C(/C(=O)OC)c1cccc(C)c1CO/N=C(\C)c1ccc(Cl)c(Cl)c1C(F)(F)F [compound 430]	22	6	37	17	–	–	–	–
CO/N=C(/C(=O)OC)c1cccc(C)c1CO/N=C(\C)c1cc(F)ccc1Br [compound 254]	100	77	100	100	–	–	–	–
